Measured values as given in patent US20240287046A1, “COMPOUNDS AND RADIOLIGANDS FOR TARGETING NEUROTENSIN RECEPTOR AND USES THEREOF” (Full-Life Technologies HK Limited, priority 2022, published 2024).

Key:
[1] = test system: ASPC-1 tumor-bearing mice; test: SPECT/CT imaging of ^177Lu-labeled complexes; format: in vivo; conditions: over 72 hours
Description: ASPC-1 tumor-bearing mice were IV-injected with about 120 μCi of ^177Lu-labeled complexes, then anesthetized under 2% isoflurane/oxygen gas and placed on the scanner. SPECT/CT images were acquired in three bed positions for 30 min using a MILabs SPECT scanner. Whole-body SPECT images were acquired at 1 h, 4 h, 24 and 72 h after injecting the radiotracers.

HT-29 tumor-bearing mice = test: Biodistribution of radionuclide labeled complexes in HT-29 tumor-bearing mice; format: in vivo, BALB/c nude mice
Description: The BALB/c nude mice (Charles River, Beijing) were utilized to establish the xenografted model for biodistribution study. All animal care and experimental procedure were performed by following the animal protocols approved by the ethics committee of China Institute of Radiation Protection.
Briefly, each mouse was inoculated with approximately 4×10^6 ASPC-1 cells (human pancreatic cancer cell line) or HT-29 cells (human colorectal adenocarcinoma cell line) expressing human NTSR-1 by subcutaneous injection at rear flank. After inoculation, the xenografted tumors were allowed to grow for ˜2-4 weeks till the tumor weight reached to about 0.05 to 0.50 g (0.20 g in average).
Biodistribution studies were performed by administrating the radionuclide labeled test compound at a dose of ˜30-50 μCi (100 μL in 0.9% NaCl, ˜1.11-1.85 MBq, with specific activity 30-250 μCi/nmol) to each animal through tail vein injection.
At different time points after the administration, the mice treated with each compound were euthanized. The tissues and organs of the animals in each group were collected, excised, weighed, and analyzed in a PerkinElmer 2480 WIZARD2γ counter, and the percent injected dose (% ID) and % ID/g of each organ or tissue were calculated.

[2] = test system: ASPC-1 tumor-bearing mice; test: Biodistribution of radionuclide labeled complexes in ASPC-1 tumor-bearing mice; format: in vivo, BALB/c nude mice
Outline: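 Radiolabeled compound (~30-50 μCi, ~1.11-1.85 MBq, specific activity 30-250 μCi/nmol) was injected i.v. via tail vein into nude mice carrying 0.05-0.50 g subcutaneous NTSR-1-positive human tumors. At set times, tissues were collected, weighed and γ-counted; % ID and % ID/g were calculated.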

COc1cccc(OC)c1-c1cc(C(=O)NC2(C(=O)O)C3CC4CC(C3)CC2C4)nn1-c1ccc(NC(=O)CCCN(C)CCCN(C)C(=O)CN2CCN(CC(=O)[O-])CCN(CC(=O)[O-])CCN(CC(=O)[O-])CC2)cc1C(C)C.[177Lu+3] (stereo not shown) [^177Lu-I-5]
clearance from other organs or tissues (SPECT/CT) [1]: rapid clearance
retention in tumors (SPECT/CT) [1]: sustained retention in tumors
% ID/g (1 h) Blood (HT-29 tumor-bearing mice; Blood, 1 h): 20.4 ± 1.06 % ID/g
% ID/g (4 h) Blood (HT-29 tumor-bearing mice; Blood, 4 h): 9.07 ± 1.42 % ID/g
% ID/g (24 h) Blood (HT-29 tumor-bearing mice; Blood, 24 h): 0.07 ± 0.02 % ID/g
% ID/g (72 h) Blood (HT-29 tumor-bearing mice; Blood, 72 h): 0.09 ± 0.07 % ID/g
% ID/g (120 h) Blood (HT-29 tumor-bearing mice; Blood, 120 h): 0.01 ± 0 % ID/g
% ID/g (1 h) Femur (HT-29 tumor-bearing mice; Femur, 1 h): 1.84 ± 1.19 % ID/g
% ID/g (4 h) Femur (HT-29 tumor-bearing mice; Femur, 4 h): 0.99 ± 0.18 % ID/g
% ID/g (24 h) Femur (HT-29 tumor-bearing mice; Femur, 24 h): 0.29 ± 0.1 % ID/g
% ID/g (72 h) Femur (HT-29 tumor-bearing mice; Femur, 72 h): 0.73 ± 0.82 % ID/g
% ID/g (120 h) Femur (HT-29 tumor-bearing mice; Femur, 120 h): 0.13 ± 0.05 % ID/g
% ID/g (1 h) Heart (HT-29 tumor-bearing mice; Heart, 1 h): 5.76 ± 1.66 % ID/g
% ID/g (4 h) Heart (HT-29 tumor-bearing mice; Heart, 4 h): 3.15 ± 0.43 % ID/g
% ID/g (24 h) Heart (HT-29 tumor-bearing mice; Heart, 24 h): 0.31 ± 0.07 % ID/g
% ID/g (72 h) Heart (HT-29 tumor-bearing mice; Heart, 72 h): 0.89 ± 0.56 % ID/g
% ID/g (120 h) Heart (HT-29 tumor-bearing mice; Heart, 120 h): 0.13 ± 0.02 % ID/g
% ID/g (1 h) Intestine (HT-29 tumor-bearing mice; Intestine, 1 h): 2.59 ± 0.76 % ID/g
% ID/g (4 h) Intestine (HT-29 tumor-bearing mice; Intestine, 4 h): 1.7 ± 0.53 % ID/g
% ID/g (24 h) Intestine (HT-29 tumor-bearing mice; Intestine, 24 h): 0.7 ± 0.39 % ID/g
% ID/g (72 h) Intestine (HT-29 tumor-bearing mice; Intestine, 72 h): 1.33 ± 0.88 % ID/g
% ID/g (120 h) Intestine (HT-29 tumor-bearing mice; Intestine, 120 h): 0.17 ± 0.06 % ID/g
% ID/g (1 h) Kidney (HT-29 tumor-bearing mice; Kidney, 1 h): 4.34 ± 2.82 % ID/g
% ID/g (4 h) Kidney (HT-29 tumor-bearing mice; Kidney, 4 h): 3.22 ± 1.54 % ID/g
% ID/g (24 h) Kidney (HT-29 tumor-bearing mice; Kidney, 24 h): 2.61 ± 0.72 % ID/g
% ID/g (72 h) Kidney (HT-29 tumor-bearing mice; Kidney, 72 h): 3.55 ± 2.21 % ID/g
% ID/g (120 h) Kidney (HT-29 tumor-bearing mice; Kidney, 120 h): 0.81 ± 0.23 % ID/g
% ID/g (1 h) Liver (HT-29 tumor-bearing mice; Liver, 1 h): 5.26 ± 1.02 % ID/g
% ID/g (4 h) Liver (HT-29 tumor-bearing mice; Liver, 4 h): 4.41 ± 1.88 % ID/g
% ID/g (24 h) Liver (HT-29 tumor-bearing mice; Liver, 24 h): 2.21 ± 0.36 % ID/g
% ID/g (72 h) Liver (HT-29 tumor-bearing mice; Liver, 72 h): 4.44 ± 3.4 % ID/g
% ID/g (120 h) Liver (HT-29 tumor-bearing mice; Liver, 120 h): 0.55 ± 0.3 % ID/g
% ID/g (1 h) Lung (HT-29 tumor-bearing mice; Lung, 1 h): 9.85 ± 2.58 % ID/g
% ID/g (4 h) Lung (HT-29 tumor-bearing mice; Lung, 4 h): 3.88 ± 1.04 % ID/g
% ID/g (24 h) Lung (HT-29 tumor-bearing mice; Lung, 24 h): 0.62 ± 0.32 % ID/g
% ID/g (72 h) Lung (HT-29 tumor-bearing mice; Lung, 72 h): 0.5 ± 0.19 % ID/g
% ID/g (120 h) Lung (HT-29 tumor-bearing mice; Lung, 120 h): 0.12 ± 0.1 % ID/g
% ID/g (1 h) Muscle (HT-29 tumor-bearing mice; Muscle, 1 h): 1.07 ± 0.14 % ID/g
% ID/g (4 h) Muscle (HT-29 tumor-bearing mice; Muscle, 4 h): 0.66 ± 0.21 % ID/g
% ID/g (24 h) Muscle (HT-29 tumor-bearing mice; Muscle, 24 h): 0.12 ± 0.04 % ID/g
% ID/g (72 h) Muscle (HT-29 tumor-bearing mice; Muscle, 72 h): 0.37 ± 0.34 % ID/g
% ID/g (120 h) Muscle (HT-29 tumor-bearing mice; Muscle, 120 h): 0.06 ± 0.02 % ID/g
% ID/g (1 h) Pancreas (HT-29 tumor-bearing mice; Pancreas, 1 h): 1.18 ± 0.61 % ID/g
% ID/g (4 h) Pancreas (HT-29 tumor-bearing mice; Pancreas, 4 h): 1.01 ± 0.71 % ID/g
% ID/g (24 h) Pancreas (HT-29 tumor-bearing mice; Pancreas, 24 h): 0.15 ± 0.06 % ID/g
% ID/g (72 h) Pancreas (HT-29 tumor-bearing mice; Pancreas, 72 h): 0.51 ± 0.5 % ID/g
% ID/g (120 h) Pancreas (HT-29 tumor-bearing mice; Pancreas, 120 h): 0.05 ± 0.02 % ID/g
% ID/g (1 h) Spleen (HT-29 tumor-bearing mice; Spleen, 1 h): 1.76 ± 0.41 % ID/g
% ID/g (4 h) Spleen (HT-29 tumor-bearing mice; Spleen, 4 h): 1.22 ± 0.16 % ID/g
% ID/g (24 h) Spleen (HT-29 tumor-bearing mice; Spleen, 24 h): 0.43 ± 0.09 % ID/g
% ID/g (72 h) Spleen (HT-29 tumor-bearing mice; Spleen, 72 h): 1.61 ± 1.35 % ID/g
% ID/g (120 h) Spleen (HT-29 tumor-bearing mice; Spleen, 120 h): 0.8 ± 0.32 % ID/g
% ID/g (1 h) Stomach (HT-29 tumor-bearing mice; Stomach, 1 h): 1.29 ± 0.31 % ID/g
% ID/g (4 h) Stomach (HT-29 tumor-bearing mice; Stomach, 4 h): 1.35 ± 0.68 % ID/g
% ID/g (24 h) Stomach (HT-29 tumor-bearing mice; Stomach, 24 h): 0.29 ± 0.11 % ID/g
% ID/g (72 h) Stomach (HT-29 tumor-bearing mice; Stomach, 72 h): 0.54 ± 0.53 % ID/g
% ID/g (120 h) Stomach (HT-29 tumor-bearing mice; Stomach, 120 h): 0.07 ± 0.01 % ID/g
% ID/g (1 h) Tumor (HT-29 tumor-bearing mice; Tumor, 1 h): 9.74 ± 2.44 % ID/g
% ID/g (4 h) Tumor (HT-29 tumor-bearing mice; Tumor, 4 h): 20.7 ± 2.21 % ID/g
% ID/g (24 h) Tumor (HT-29 tumor-bearing mice; Tumor, 24 h): 17.4 ± 4.53 % ID/g
% ID/g (72 h) Tumor (HT-29 tumor-bearing mice; Tumor, 72 h): 10.02 ± 6.15 % ID/g
% ID/g (120 h) Tumor (HT-29 tumor-bearing mice; Tumor, 120 h): 6.61 ± 1.12 % ID/g
tumor AUC over 72 hours compared to ^177Lu—C2 [2]: significantly higher tumor AUC
% ID/g (4 h) Blood ([2]; Blood, 4 h): 15.51 ± 0.77 % ID/g
% ID/g (24 h) Blood ([2]; Blood, 24 h): 0.09 ± 0.01 % ID/g
% ID/g (72 h) Blood ([2]; Blood, 72 h): 0.02 ± 0 % ID/g
% ID/g (4 h) Femur ([2]; Femur, 4 h): 2.21 ± 0.63 % ID/g
% ID/g (24 h) Femur ([2]; Femur, 24 h): 0.38 ± 0.23 % ID/g
% ID/g (72 h) Femur ([2]; Femur, 72 h): 0.17 ± 0.09 % ID/g
% ID/g (4 h) Heart ([2]; Heart, 4 h): 2.82 ± 1.88 % ID/g
% ID/g (24 h) Heart ([2]; Heart, 24 h): 2.18 ± 2.71 % ID/g
% ID/g (72 h) Heart ([2]; Heart, 72 h): 0.15 ± 0.13 % ID/g
% ID/g (4 h) Intestine ([2]; Intestine, 4 h): 1.81 ± 0.87 % ID/g
% ID/g (24 h) Intestine ([2]; Intestine, 24 h): 0.82 ± 0.31 % ID/g
% ID/g (72 h) Intestine ([2]; Intestine, 72 h): 0.51 ± 0.04 % ID/g
% ID/g (4 h) Kidney ([2]; Kidney, 4 h): 4.57 ± 2.28 % ID/g
% ID/g (24 h) Kidney ([2]; Kidney, 24 h): 1.37 ± 0.17 % ID/g
% ID/g (72 h) Kidney ([2]; Kidney, 72 h): 1.29 ± 0.49 % ID/g
% ID/g (4 h) Liver ([2]; Liver, 4 h): 3.87 ± 2.36 % ID/g
% ID/g (24 h) Liver ([2]; Liver, 24 h): 1.27 ± 0.29 % ID/g
% ID/g (72 h) Liver ([2]; Liver, 72 h): 0.96 ± 0.07 % ID/g
% ID/g (4 h) Lung ([2]; Lung, 4 h): 1.841 ± 0.07 % ID/g
% ID/g (24 h) Lung ([2]; Lung, 24 h): 0.33 ± 0.06 % ID/g
% ID/g (72 h) Lung ([2]; Lung, 72 h): 0.23 ± 0.07 % ID/g
% ID/g (4 h) Muscle ([2]; Muscle, 4 h): 1.29 ± 0.37 % ID/g
% ID/g (24 h) Muscle ([2]; Muscle, 24 h): 0.17 ± 0.08 % ID/g
% ID/g (72 h) Muscle ([2]; Muscle, 72 h): 0.05 ± 0.01 % ID/g
% ID/g (4 h) Pancreas ([2]; Pancreas, 4 h): 1.57 ± 0.5 % ID/g
% ID/g (24 h) Pancreas ([2]; Pancreas, 24 h): 0.3 ± 0.24 % ID/g
% ID/g (72 h) Pancreas ([2]; Pancreas, 72 h): 0.1 ± 0.04 % ID/g
% ID/g (4 h) Spleen ([2]; Spleen, 4 h): 2.39 ± 1.4 % ID/g
% ID/g (24 h) Spleen ([2]; Spleen, 24 h): 0.63 ± 0.05 % ID/g
% ID/g (72 h) Spleen ([2]; Spleen, 72 h): 0.34 ± 0.04 % ID/g
% ID/g (4 h) Stomach ([2]; Stomach, 4 h): 3.52 ± 0.4 % ID/g
% ID/g (24 h) Stomach ([2]; Stomach, 24 h): 0.28 ± 0.2 % ID/g
% ID/g (72 h) Stomach ([2]; Stomach, 72 h): 0.15 ± 0.05 % ID/g
% ID/g (4 h) Tumor ([2]; Tumor, 4 h): 27.56 ± 12.51 % ID/g
% ID/g (24 h) Tumor ([2]; Tumor, 24 h): 36.67 ± 18.25 % ID/g
% ID/g (72 h) Tumor ([2]; Tumor, 72 h): 12.83 ± 4.23 % ID/g
ratio of tumor AUC verse normal organ AUC ([2]; compared to ^177Lu—C2): significantly improved
